For assay [1], the target named is T1, eIF2B decamer in eIF2Bα^E198K HEK293T lysate (Homo sapiens, UniProt P49770+Q14232+Q9UI10, E198K).
T1 construct: endogenous in cells; host or cells: HEK293T, CRISPR knock-in eIF2Bα E198K (homozygous), lysate
Briefly: Sucrose gradient centrifugation, eIF2B complex assembly, eIF2Bα E198K HEK293T lysate. The format is biochemical. The method, then: (§1) WT or eIF2Bα mutant HEK293T cells were harvested and lysed in 50 mM HEPES, 400 mM KCl, 1 mM DTT, 4 mM Mg(OAc)2, pH 7.5 + 0.5% Triton-X-100 + EDTA-free protease inhibitor cocktail (Roche) on ice for 30 min. Lysates were cleared by centrifugation at 48,000 × g, 4 °C for 30 min. 100 μL of each cleared lysate was loaded onto a 5–20% sucrose gradient prepared in a 13 × 51 mm ultracentrifuge tube using a Gradient Station (Biocomp) and centrifuged in a SW55 Ti rotor at 152,000 × g, 4 °C for 12 h. After centrifugation, 24 × 200 μL fractions were manually collected from the top to bottom of each gradient. Each fraction was subjected to methanol/chloroform precipitation and SDS-PAGE followed by Western Blot with the indicated antibodies. Blots were imaged on a ChemiDoc MP (Bio-Rad), and band intensities were quantified using the instrument’s Image Lab software. Each value was then divided by total intensity obtained across all fractions to determine percent enrichment of each subunit in each fraction.

The target of the next assay is T2, eIF2B (Homo sapiens, UniProt P49770+Q14232+Q9UI10).
T2 construct: made in house; host or cells: eIF2Bα: E. coli BL21(DE3)
Description: eIF2B GEF activity assay, targeted, recombinant wild-type eIF2B. The settings on record: dose-response with eIF2B; 95% CI 2.2-5.3 μM; read-out: EC50 of GEF activation (GDP release t1/2). The format is biochemical. The procedure: Bodipy-FL-GDP-loaded eIF2 was used as a substrate for recombinant eIF2B. The assay was performed in 384-well plates. Reactions were read on a SpectraMax i3x plate reader (Molecular Devices) using the instrument’s Softmax Pro software with the following parameters: plate temperature = 25 °C; excitation wavelength = 485 nm (15 nm width); emission wavelength = 535 nm (25 nm width); read duration = 30 min at 45 s intervals. Data were analyzed in Prism. GDP release half-lives were calculated by fitting single-exponential decay curves.
For unbiased screening, MIDAS metabolite libraries at 10 mM stock concentration were dispensed into wells of the assay plate using an Echo Acoustic Liquid Handler (Labcyte). In a final assay volume of 10 μL/well, the following conditions were kept constant: 25 nM Bodipy-FL-GDP-loaded eIF2, 4 nM phospho-eIF2, 0.1 mM GDP, 1 mg/mL BSA, 1 nM eIF2B, 10 μM metabolite. A single well was run for each metabolite. For targeted experiments with recombinant wild-type and mutant eIF2Bα, the following conditions were used: 50 nM Bodipy-FL-GDP-loaded eIF2, 0.1 mM GDP, 1 mg/ml BSA, 20 nM eIF2B. For targeted experiments with HEK293T lysates, the following conditions were used: 50 nM Bodipy-FL-GDP-loaded eIF2, 0.1 mM GDP, 1 mg/ml BSA, 0.1 or 0.3 mg/ml lysates.

A further assay concerns the target T3, eIF2Bα (Homo sapiens, UniProt Q14232).
T3 construct: made in house; host or cells: E. coli BL21(DE3)
T3 sequence (Q14232 1-305): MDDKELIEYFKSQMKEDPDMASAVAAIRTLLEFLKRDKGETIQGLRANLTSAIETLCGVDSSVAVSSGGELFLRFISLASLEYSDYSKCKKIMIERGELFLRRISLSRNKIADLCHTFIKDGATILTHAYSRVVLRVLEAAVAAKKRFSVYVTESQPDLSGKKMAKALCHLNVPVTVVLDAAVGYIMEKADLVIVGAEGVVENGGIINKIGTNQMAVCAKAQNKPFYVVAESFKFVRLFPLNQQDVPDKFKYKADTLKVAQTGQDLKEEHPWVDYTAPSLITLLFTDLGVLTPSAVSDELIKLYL
Description: Differential scanning fluorimetry (Protein Thermal Shift), eIF2Bα Tm. The format is binding. The settings on record: for Tm of eIF2Bα: individual replicates Rep 1-4, control without metabolite about 64.1. The gist of the method:
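Human eIF2Bα at 1.5 μM was heated with Thermal Shift dye and metabolites in dose response. Tm for each condition came from Boltzmann fits of the melt curves.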
(In general: In DSF a fluorescence change marks the thermal transition of the protein.)

The target in assay [2] is T4, eIF2B decamer in eIF2Bα^V183F HEK293T lysate (Homo sapiens, UniProt P49770+Q14232+Q9UI10, V183F).
T4 construct: endogenous in cells
Briefly: Sucrose gradient centrifugation, eIF2B complex assembly, eIF2Bα V183F HEK293T lysate. Type of assay: biochemical. The note with it: 500 nM ISRIB, 200 μM F6P. The procedure: as §1

Assay [3] concerns the target T5, recombinant eIF2B(βδγε) ± eIF2Bα2 (Homo sapiens, UniProt P49770+Q14232+Q9UI10).
T5 construct: made in house; host or cells: eIF2Bα: E. coli BL21(DE3)
Description: Size-exclusion chromatography of recombinant eIF2B(βδγε) with or without eIF2Bα. Type of assay: biochemical. The note with it: SEC, recombinant eIF2B(βδγε) + eIF2Bα2; 500 nM ISRIB, 200 μM F6P. The method, then: (§2) Purified proteins were thawed and centrifuged at 20,000 × g, 10 min, 4 °C to remove any potential precipitate. Concentrations of eIF2B(βδγε) and eIF2Bα were normalized to 2 μM and 2.4 μM, respectively. 0.2 mL of each mixture was injected onto a Superose 6 Increase 10/300 column connected to an AKTA Pure 25 FPLC system (GE Healthcare). The system was run at 0.5 mL/min for 1 h using 25 mM HEPES, 200 mM KCl, 2 mM MgCl2, 1 mM DTT, pH 7.5 as the mobile phase. For conditions with ISRIB, the protein samples and mobile phase were supplemented with 500 nM ISRIB. For conditions with F6P, the protein samples and mobile phase were supplemented with 200 μM F6P. UV280 measurements were obtained directly by the instrument.

In assay [4] the target is T6, recombinant eIF2B(βδγε) ± eIF2Bα2 (Homo sapiens, UniProt P49770+Q9UI10).
T6 construct: made in house; host or cells: eIF2Bα: E. coli BL21(DE3)
Described as above. The settings on record: SEC, recombinant eIF2B(βδγε); 500 nM ISRIB, 200 μM F6P. The format is biochemical. The procedure: as §2

Assay [5] concerns the target T7, eIF2B decamer in WT HEK293T lysate (Homo sapiens, UniProt P49770+Q14232+Q9UI10).
T7 construct: endogenous in cells; host or cells: HEK293T (wild type) lysate
Description: Sucrose gradient centrifugation, eIF2B complex assembly, WT HEK293T lysate. The format is biochemical. The note with it: 400 mM KCl, 5–20% sucrose gradient. The method, then:
as §1

Several values for one entry are separate records, joined by “and”; a condition that tells them apart may be missing. Identical values can stand only once.

T1 sequence (Q14232 whole entry E198K): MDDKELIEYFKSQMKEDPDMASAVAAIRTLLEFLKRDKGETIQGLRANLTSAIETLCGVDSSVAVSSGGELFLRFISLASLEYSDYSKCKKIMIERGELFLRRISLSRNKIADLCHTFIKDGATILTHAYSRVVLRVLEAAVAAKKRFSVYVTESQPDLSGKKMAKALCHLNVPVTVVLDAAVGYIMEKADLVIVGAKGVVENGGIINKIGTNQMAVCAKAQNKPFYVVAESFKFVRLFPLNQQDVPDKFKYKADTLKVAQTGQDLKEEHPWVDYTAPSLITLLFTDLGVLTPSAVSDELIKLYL
T1 sequence (P49770 whole entry): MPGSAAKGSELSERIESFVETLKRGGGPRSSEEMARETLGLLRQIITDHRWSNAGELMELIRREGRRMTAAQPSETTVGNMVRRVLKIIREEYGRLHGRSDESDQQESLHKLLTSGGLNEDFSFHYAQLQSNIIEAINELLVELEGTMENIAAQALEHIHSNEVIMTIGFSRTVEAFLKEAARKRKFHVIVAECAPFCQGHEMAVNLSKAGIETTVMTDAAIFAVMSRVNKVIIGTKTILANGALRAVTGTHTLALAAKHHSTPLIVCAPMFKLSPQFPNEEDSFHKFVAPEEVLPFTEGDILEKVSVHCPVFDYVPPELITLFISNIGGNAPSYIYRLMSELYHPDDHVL
T1 sequence (Q9UI10 whole entry): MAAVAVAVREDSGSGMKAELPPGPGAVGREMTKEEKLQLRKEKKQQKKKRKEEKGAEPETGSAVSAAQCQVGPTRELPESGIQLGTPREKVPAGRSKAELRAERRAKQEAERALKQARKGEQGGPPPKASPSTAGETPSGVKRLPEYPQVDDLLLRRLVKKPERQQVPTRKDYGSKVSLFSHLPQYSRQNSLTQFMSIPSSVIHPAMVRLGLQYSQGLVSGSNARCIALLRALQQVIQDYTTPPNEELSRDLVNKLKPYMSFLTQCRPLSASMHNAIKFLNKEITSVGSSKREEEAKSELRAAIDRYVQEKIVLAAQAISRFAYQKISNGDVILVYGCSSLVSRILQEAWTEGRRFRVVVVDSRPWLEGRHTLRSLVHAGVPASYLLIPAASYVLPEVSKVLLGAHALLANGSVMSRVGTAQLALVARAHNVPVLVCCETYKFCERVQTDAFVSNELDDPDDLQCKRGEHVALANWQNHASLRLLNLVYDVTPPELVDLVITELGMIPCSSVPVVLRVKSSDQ
T1 sequence (Q9NR50 whole entry partner): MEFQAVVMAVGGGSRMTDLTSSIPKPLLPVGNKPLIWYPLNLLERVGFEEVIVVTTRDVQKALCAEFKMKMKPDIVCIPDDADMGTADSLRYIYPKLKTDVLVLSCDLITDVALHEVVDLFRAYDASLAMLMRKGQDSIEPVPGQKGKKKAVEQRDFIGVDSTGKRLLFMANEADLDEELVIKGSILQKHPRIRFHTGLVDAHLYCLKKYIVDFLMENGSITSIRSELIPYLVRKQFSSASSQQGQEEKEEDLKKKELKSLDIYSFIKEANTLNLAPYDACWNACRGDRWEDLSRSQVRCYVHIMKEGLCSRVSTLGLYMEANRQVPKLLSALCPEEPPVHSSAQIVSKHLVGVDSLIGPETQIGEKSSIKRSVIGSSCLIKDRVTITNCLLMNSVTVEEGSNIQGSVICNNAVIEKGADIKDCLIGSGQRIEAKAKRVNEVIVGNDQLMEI
T1 sequence (Q13144 whole entry partner): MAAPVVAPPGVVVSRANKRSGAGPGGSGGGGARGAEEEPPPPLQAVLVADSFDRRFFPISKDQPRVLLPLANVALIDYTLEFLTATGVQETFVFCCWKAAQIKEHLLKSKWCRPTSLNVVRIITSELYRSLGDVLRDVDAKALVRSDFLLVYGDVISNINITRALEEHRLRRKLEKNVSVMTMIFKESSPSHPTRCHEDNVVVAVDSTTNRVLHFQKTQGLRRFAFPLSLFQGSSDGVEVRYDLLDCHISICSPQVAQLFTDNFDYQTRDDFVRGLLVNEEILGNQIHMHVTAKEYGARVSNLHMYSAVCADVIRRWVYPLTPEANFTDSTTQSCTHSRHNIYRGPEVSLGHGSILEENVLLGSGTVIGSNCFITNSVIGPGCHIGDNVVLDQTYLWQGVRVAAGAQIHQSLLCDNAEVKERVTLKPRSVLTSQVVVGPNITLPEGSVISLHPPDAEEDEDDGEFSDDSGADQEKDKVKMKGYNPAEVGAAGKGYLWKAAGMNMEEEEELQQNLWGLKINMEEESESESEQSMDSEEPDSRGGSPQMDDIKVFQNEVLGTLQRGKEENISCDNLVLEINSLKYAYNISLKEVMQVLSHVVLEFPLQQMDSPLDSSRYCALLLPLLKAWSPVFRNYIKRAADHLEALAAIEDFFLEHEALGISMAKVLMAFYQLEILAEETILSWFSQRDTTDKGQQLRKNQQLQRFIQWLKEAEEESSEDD
T6 sequence (P49770 whole entry): as the sequence (P49770 whole entry) above
T6 sequence (Q9UI10 2-523): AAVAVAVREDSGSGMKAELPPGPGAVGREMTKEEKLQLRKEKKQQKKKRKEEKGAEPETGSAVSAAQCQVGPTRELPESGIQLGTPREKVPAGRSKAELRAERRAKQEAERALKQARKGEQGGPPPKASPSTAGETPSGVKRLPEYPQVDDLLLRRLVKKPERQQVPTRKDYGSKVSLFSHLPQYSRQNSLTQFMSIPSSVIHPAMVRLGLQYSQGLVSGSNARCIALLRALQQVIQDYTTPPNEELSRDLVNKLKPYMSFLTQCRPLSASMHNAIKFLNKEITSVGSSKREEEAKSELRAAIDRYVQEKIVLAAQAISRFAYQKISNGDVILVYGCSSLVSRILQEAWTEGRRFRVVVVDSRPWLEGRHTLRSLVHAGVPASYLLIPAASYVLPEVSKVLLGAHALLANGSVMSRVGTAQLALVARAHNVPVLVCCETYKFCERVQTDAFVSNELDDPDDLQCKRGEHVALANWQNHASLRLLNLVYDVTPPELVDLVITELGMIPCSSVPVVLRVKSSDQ
T6 sequence (Q9NR50 whole entry partner): as the sequence (Q9NR50 whole entry partner) above
T6 sequence (Q13144 whole entry partner): as the sequence (Q13144 whole entry partner) above
T4 sequence (Q14232 whole entry V183F): as the sequence (Q14232 whole entry E198K) above, with V183F, K198E counted along it
T4 sequence (P49770 whole entry): as the sequence (P49770 whole entry) above
T4 sequence (Q9UI10 whole entry): as the sequence (Q9UI10 whole entry) above
T4 sequence (Q9NR50 whole entry partner): as the sequence (Q9NR50 whole entry partner) above
T4 sequence (Q13144 whole entry partner): as the sequence (Q13144 whole entry partner) above
T5 sequence (P49770 whole entry, one chain of several): as the sequence (P49770 whole entry) above
T5 sequence (Q9UI10 2-523, one chain of several): as the sequence (Q9UI10 2-523) above
T5 sequence (Q9NR50 whole entry partner, one chain of several): as the sequence (Q9NR50 whole entry partner) above
T5 sequence (Q13144 whole entry partner, one chain of several): as the sequence (Q13144 whole entry partner) above
T2 sequence (P49770 whole entry, one chain of several): as the sequence (P49770 whole entry) above
T2 sequence (Q9UI10 whole entry, one chain of several): as the sequence (Q9UI10 whole entry) above
T2 sequence (Q9NR50 whole entry partner, one chain of several): as the sequence (Q9NR50 whole entry partner) above
T2 sequence (Q13144 whole entry partner, one chain of several): as the sequence (Q13144 whole entry partner) above
T7 sequence (P49770 whole entry, one chain of several): as the sequence (P49770 whole entry) above
T7 sequence (Q9UI10 whole entry, one chain of several): as the sequence (Q9UI10 whole entry) above
T7 sequence (Q9NR50 whole entry partner, one chain of several): as the sequence (Q9NR50 whole entry partner) above
T7 sequence (Q13144 whole entry partner, one chain of several): as the sequence (Q13144 whole entry partner) above

Take `O=C(CO)[C@@H](O)[C@H](O)[C@H](O)COP(=O)(O)O` [F6P, fructose-6-phosphate]: the eIF2B decamer formation entry is reported as “unresponsive” in assay [1] and “promoted decamer formation at comparable levels” in assay [2]. Further, the EC50 at eIF2B was 3.4 µM. The “Tm of eIF2Bα” value was 64.8334 °C and 64.3598 °C and 65.3978 °C and 64.9639 °C at eIF2Bα (0.33 mM metabolite); 66.8037 °C and 65.9412 °C and 67.2839 °C and 67.2375 °C on eIF2Bα (1 mM metabolite); 67.7489 °C and 67.4475 °C and 67.8791 °C and 67.7249 °C at eIF2Bα (3.3 mM metabolite); 69.8589 °C and 69.0448 °C and 70.0639 °C and 69.9908 °C at eIF2Bα (10 mM metabolite). Moreover, the “Tm shift of eIF2Bα2” value on eIF2Bα (largest shift seen in dose-response) was found to be 6 °C. Besides, in assay [3], the “complex formation in the presence of eIF2Bα” value is recorded as “enhances eIF2B complex stability”. Further, in assay [4], the “complex formation in the absence of eIF2Bα” value is on record as “ineffective at promoting complex formation”. For the same compound, the “eIF2B decamer formation (migration of eIF2Bα and eIF2Bδ)” value in assay [5] is “induced stabilization of the eIF2B decamer comparable to ISRIB”.

These data come from publication PMC8187479, “Sugar phosphate activation of the stress sensor eIF2B” (Nature Communications, 2021).
